In ChEMBL document CHEMBL1800071, “Switching reversibility to irreversibility in glycogen synthase kinase 3 inhibitors: clues for specific design of new compounds” (J Med Chem, 2011):
pIC50: −log10 of the molar value. The source made the active and inactive calls. The rule behind the calls is not given here.

Experiments:
[1] = biological target: T1, Glycogen synthase kinase-3 beta (Homo sapiens, UniProt P49841); assay: Inhibition of GSK3-beta using GS1 as substrate and [gamma-32P]ATP after 20 mins by radiometric assay
Target sequence in this assay (P49841 whole entry): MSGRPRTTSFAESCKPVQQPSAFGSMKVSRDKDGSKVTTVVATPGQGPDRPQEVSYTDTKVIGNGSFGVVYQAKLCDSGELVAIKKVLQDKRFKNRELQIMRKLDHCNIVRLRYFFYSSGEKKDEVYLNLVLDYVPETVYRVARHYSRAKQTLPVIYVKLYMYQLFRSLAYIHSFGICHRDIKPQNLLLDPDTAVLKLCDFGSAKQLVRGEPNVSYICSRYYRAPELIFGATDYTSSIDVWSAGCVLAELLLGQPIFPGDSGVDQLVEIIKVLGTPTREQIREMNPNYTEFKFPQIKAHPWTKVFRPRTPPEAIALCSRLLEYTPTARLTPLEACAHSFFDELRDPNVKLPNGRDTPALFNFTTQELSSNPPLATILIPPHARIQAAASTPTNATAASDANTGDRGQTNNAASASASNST

[2] = biological target: T1, Glycogen synthase kinase-3 beta; assay: Inhibition of human recombinant GSK3-beta using prephosphorylated polypeptide substrate after 30 mins by Glow-type luminescence assay in presence of 1 uM ATP
Target sequence in this assay (P49841 whole entry): as above

[3] = biological target: T1, Glycogen synthase kinase-3 beta; assay: Covalent binding affinity to human recombinant GSK3-beta by MALDI-TOF analysis
Target sequence in this assay (P49841 whole entry, looked up): as the sequence (P49841 whole entry) above

[4] = biological target: T1, Glycogen synthase kinase-3 beta; assay: Irreversible inhibition of human recombinant GSK3-beta using prephosphorylated polypeptide substrate preincubated with enzyme for 5 to 10 mins measured after 30 mins by Glow-type luminescence assay in presence of 1 uM ATP
Target sequence in this assay (P49841 whole entry, looked up): as the sequence (P49841 whole entry) above

[5] = biological target: T1, Glycogen synthase kinase-3 beta; assay: Reversible inhibition of human recombinant GSK3-beta using prephosphorylated polypeptide substrate preincubated with enzyme for 5 to 10 mins measured after 30 mins by Glow-type luminescence assay in presence of 1 uM ATP
Target sequence in this assay (P49841 whole entry, looked up): as the sequence (P49841 whole entry) above

[6] = Inhibition of GSK3 in granule cerebellar neurons assessed as […] of tau phosphorylation at 25 uM after 16 hrs by Western blot analysis
[7] = Inhibition of GSK3 in granule cerebellar neurons assessed as decrease of tau phosphorylation at Ser396 at 25 uM after 16 hrs by Western blot analysis
[8] = biological target: Insulin receptor (Homo sapiens) (UniProt P06213); assay: Inhibition of human recombinant IRK using poly GT as substrate and [gamma-33P]ATP at 10 uM by scintillation counting
[9] = biological target: D(2) dopamine receptor (Homo sapiens) (UniProt P14416); assay: Displacement of [3H]spiperone form human recombinant D2 receptor expressed in CHO cells at 10 uM; assay type: cell-based
[10] = system: Calcium/calmodulin-dependent protein kinase type II (Rattus norvegicus); assay: Inhibition of rat brain CAM kinase 2 using autocamtide as substrate and [gamma-33P] at 10 uM by scintillation counting
Rattus norvegicus [11] = organism: Rattus norvegicus; assay: Displacement of [3H]-AMPA from AMPA glutaminergic receptor in rat cerebral cortex at 10 uM; assay type: tissue-based
[12] = biological target: Proto-oncogene tyrosine-protein kinase Src (Homo sapiens) (UniProt P12931); assay: Inhibition of Src kinase at 10 uM
[13] = biological target: Mitogen-activated protein kinase 1 (Rattus norvegicus) (UniProt P63086); assay: Inhibition of rat recombinant ERK42 expressed in Escherichia coli using MBP as substrate and [gamma-33P]ATP at 10 uM by scintillation counting
Rattus norvegicus [14] = organism: Rattus norvegicus; assay: Displacement of [3H]serotonine from 5-HT receptor in rat cerebral cortex at 10 uM; assay type: tissue-based
Bos taurus = organism: Bos taurus; assay: Inhibition of bovine thymus protein kinase p56 using poly GT as substrate and [gamma-33P]ATP at 10 uM by scintillation counting
Rattus norvegicus [15] = organism: Rattus norvegicus; assay: Displacement of [3H]-CGP39653 from NMDA glutaminergic receptor in rat cerebral cortex at 10 uM; assay type: tissue-based
Rattus norvegicus [16] = organism: Rattus norvegicus; assay: Displacement of [125I]-alpha-bungarotoxin from alpha-BGTX-sensitive neuronal nicotinic receptor in rat cerebral cortex at 10 uM; assay type: tissue-based
[17] = biological target: Dual specificity mitogen-activated protein kinase kinase 1 (Oryctolagus cuniculus) (UniProt P29678); assay: Inhibition of rabbit recombinant MEK1 expressed in Escherichia coli using inactivated MAP kinase as substrate and [gamma-33P]ATP at 10 uM by scintillation counting
Rattus norvegicus [18] = organism: Rattus norvegicus; assay: Displacement of [3H]cytisine from alpha-BGTX-insensitive neuronal nicotinic receptor in rat cerebral cortex at 10 uM; assay type: tissue-based
[19] = biological target: Adrenergic receptor alpha-2 (Rattus norvegicus) (UniProt P22086+P19328+P22909); assay: Displacement of [3H]-RX821002 from adrenergic A2 receptor in rat cerebral cortex at 10 uM; assay type: tissue-based
[20] = biological target: Tyrosine-protein kinase ABL1 (Mus musculus) (UniProt P00520); assay: Inhibition of mouse recombinant Abl expressed in Escherichia coli assessed as phosphopoly Gt formation using poly Gt as substrate at 10 uM by fluorescence polarization method
[21] = biological target: Epidermal growth factor receptor (Homo sapiens) (UniProt P00533); assay: Inhibition of EGFR kinase in human A431 cells using poly GAT as substrate and [gamma-33P]ATP at 10 uM by scintillation counting; assay type: cell-based; settings: A-431
[22] = Inhibition of protein kinase A at 100 uM
[23] = biological target: D(3) dopamine receptor (Homo sapiens) (UniProt P35462); assay: Displacement of [3H]spiperone form human recombinant D3 receptor expressed in CHO cells at 10 uM; assay type: cell-based
[24] = biological target: Muscarinic acetylcholine receptor (Rattus norvegicus) (UniProt P08482+P08483+P08485+P08911+P10980); assay: Displacement of [3H]-QNB from muscarinic receptor in rat cerebral cortex at 10 uM; assay type: tissue-based

Chain of Epidermal growth factor receptor (Homo sapiens) (P00533 whole entry): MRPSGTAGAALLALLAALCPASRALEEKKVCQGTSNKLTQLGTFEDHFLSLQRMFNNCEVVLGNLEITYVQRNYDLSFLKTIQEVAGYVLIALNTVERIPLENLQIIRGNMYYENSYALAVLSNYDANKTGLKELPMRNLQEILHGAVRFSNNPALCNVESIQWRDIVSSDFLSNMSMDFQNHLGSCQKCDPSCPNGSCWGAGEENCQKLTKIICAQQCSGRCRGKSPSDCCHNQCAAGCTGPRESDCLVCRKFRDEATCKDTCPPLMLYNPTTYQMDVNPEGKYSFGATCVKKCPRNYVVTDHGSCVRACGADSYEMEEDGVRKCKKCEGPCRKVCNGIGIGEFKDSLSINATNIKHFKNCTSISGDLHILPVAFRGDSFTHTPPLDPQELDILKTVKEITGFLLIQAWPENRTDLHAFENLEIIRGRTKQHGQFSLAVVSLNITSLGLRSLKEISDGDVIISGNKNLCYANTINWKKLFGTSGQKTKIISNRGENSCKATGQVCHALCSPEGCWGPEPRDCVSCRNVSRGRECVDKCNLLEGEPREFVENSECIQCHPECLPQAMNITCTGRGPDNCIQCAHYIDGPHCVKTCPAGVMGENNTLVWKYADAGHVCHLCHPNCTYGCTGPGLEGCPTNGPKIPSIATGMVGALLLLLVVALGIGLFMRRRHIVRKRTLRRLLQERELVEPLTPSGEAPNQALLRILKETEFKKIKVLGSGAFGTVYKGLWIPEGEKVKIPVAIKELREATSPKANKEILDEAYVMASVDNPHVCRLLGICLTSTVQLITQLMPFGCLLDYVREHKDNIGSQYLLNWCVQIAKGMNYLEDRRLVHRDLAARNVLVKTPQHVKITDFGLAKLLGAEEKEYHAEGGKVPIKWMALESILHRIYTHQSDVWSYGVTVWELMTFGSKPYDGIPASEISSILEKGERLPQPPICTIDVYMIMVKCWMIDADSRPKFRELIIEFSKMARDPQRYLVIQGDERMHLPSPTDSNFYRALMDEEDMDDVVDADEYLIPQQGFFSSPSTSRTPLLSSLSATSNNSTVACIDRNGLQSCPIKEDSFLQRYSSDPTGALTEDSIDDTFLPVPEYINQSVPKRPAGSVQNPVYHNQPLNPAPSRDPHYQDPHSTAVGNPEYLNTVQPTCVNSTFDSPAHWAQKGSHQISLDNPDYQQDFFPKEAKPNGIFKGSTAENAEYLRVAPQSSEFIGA
Chain of D(3) dopamine receptor (Homo sapiens) (P35462 whole entry): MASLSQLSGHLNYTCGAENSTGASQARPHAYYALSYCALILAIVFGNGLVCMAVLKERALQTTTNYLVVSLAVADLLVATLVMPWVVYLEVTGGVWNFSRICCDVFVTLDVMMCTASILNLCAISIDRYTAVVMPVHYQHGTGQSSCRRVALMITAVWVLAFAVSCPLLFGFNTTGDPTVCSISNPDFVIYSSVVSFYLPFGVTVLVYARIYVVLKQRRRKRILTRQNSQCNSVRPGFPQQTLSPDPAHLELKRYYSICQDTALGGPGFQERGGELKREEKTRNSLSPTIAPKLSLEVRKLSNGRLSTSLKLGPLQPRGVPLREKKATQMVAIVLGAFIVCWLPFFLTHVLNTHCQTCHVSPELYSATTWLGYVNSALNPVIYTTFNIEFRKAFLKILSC
Chain of D(2) dopamine receptor (Homo sapiens) (P14416 whole entry): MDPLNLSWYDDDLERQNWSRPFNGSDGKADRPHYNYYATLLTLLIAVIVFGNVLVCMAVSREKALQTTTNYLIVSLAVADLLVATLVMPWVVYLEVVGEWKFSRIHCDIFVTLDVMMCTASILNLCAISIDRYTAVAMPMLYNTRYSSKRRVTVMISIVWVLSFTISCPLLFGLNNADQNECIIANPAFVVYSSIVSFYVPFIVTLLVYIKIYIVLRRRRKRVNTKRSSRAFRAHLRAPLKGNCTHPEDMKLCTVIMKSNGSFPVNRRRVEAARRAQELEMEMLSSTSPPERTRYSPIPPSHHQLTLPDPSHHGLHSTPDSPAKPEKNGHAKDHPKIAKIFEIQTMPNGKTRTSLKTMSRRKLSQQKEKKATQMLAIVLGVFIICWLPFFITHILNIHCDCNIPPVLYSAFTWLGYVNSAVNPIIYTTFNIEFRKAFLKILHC
Chain of Insulin receptor (Homo sapiens) (P06213 28-758 limits assumed): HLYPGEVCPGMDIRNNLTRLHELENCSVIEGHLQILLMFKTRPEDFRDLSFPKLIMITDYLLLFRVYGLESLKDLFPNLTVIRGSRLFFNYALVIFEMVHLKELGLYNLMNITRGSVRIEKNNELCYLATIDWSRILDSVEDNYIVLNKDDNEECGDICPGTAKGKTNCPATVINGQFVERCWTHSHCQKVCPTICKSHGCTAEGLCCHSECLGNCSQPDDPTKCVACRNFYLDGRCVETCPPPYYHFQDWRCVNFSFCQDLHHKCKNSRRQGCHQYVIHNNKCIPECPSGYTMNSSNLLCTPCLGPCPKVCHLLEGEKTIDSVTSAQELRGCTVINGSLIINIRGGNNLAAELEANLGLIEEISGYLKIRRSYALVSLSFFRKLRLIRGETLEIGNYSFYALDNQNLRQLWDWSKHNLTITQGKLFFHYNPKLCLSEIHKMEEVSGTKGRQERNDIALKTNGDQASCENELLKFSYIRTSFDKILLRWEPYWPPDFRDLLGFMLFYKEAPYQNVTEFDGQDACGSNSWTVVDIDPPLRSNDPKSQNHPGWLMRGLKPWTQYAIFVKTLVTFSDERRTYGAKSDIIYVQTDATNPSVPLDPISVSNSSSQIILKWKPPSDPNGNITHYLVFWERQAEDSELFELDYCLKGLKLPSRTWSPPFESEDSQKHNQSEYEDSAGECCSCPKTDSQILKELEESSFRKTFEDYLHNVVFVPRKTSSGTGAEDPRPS
Chain of Insulin receptor (Homo sapiens) (P06213 763-1382 limits assumed): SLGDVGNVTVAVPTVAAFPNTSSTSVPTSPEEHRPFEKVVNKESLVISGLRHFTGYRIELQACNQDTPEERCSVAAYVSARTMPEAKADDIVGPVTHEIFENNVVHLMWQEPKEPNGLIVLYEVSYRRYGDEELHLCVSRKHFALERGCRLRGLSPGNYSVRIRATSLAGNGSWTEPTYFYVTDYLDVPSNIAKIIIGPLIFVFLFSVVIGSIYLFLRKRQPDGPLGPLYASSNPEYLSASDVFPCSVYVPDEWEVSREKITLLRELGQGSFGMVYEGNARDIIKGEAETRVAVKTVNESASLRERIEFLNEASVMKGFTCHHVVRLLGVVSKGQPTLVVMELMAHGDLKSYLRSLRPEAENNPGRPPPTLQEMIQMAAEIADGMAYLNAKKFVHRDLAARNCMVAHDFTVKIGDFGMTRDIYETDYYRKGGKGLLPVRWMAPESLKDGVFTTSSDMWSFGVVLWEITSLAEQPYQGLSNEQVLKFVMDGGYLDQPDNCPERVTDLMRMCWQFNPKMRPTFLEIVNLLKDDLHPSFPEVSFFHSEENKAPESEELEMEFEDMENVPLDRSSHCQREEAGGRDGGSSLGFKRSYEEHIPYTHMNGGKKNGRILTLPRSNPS
Chain of Dual specificity mitogen-activated protein kinase kinase 1 (Oryctolagus cuniculus) (P29678 whole entry): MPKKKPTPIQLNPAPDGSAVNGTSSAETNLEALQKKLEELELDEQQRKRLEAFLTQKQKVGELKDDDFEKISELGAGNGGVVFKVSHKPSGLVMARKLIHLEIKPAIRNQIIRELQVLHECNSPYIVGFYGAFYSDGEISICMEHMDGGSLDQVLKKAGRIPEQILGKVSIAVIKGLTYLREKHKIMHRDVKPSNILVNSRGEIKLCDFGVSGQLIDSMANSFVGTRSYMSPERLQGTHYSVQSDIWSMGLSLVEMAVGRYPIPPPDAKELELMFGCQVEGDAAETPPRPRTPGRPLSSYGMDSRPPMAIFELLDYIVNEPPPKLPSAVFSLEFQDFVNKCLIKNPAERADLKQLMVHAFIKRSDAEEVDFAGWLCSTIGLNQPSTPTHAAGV
Chain of Proto-oncogene tyrosine-protein kinase Src (Homo sapiens) (P12931 2-536 limits assumed): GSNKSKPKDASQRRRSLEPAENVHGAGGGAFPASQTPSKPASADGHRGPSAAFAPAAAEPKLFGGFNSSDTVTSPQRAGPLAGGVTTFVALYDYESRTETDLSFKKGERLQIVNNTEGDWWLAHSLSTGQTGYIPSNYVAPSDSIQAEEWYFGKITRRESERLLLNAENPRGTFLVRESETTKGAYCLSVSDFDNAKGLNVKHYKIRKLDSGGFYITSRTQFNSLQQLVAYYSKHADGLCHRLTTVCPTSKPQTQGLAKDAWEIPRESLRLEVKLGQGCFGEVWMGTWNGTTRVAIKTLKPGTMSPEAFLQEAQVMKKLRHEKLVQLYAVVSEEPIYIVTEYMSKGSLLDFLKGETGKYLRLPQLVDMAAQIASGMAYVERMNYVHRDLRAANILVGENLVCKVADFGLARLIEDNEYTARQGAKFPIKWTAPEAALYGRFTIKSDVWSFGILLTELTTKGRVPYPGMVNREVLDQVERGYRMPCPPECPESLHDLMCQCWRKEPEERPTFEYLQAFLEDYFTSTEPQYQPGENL

## [O-][S+](CCl)c1ccc(Br)cc1 (stereo unspecified)
[1]
  pIC50: < 4.00

## Cn1cc(C2=C(C(=O)CBr)C(=O)NC2=O)c2ccccc21
[2]
  pIC50: 8.30
[3]
  Activity: Active
[4]
  inhibition: Active

## CC(=O)C1=C(c2c[nH]c3ccccc23)C(=O)NC1=O
[2]
  pIC50: 5.35
[5]
  inhibition: Active

## O=C(CSCc1ccccc1)c1ccc(Br)cc1
[1]
  pIC50: < 5.00

## [Cl-].[Li+]
[6]
  inhibition: Active
[7]
  inhibition: Active

## CCSCC(=O)c1ccc(Br)cc1
[1]
  pIC50: < 5.00

## O=C(CBr)C1=C(c2c[nH]c3ccccc23)C(=O)NC1=O
[2]
  pIC50: 7.33
[4]
  inhibition: Active

## O=C(CSc1ccccc1)c1ccc(Br)cc1
[1]
  pIC50: < 4.00

## O/N=C(\CBr)c1ccc(Br)cc1
[1]
  pIC50: < 4.00

## N#Cc1cccc(C(=O)C(Br)Br)c1
[1]
  pIC50: 6.00

## O=C(c1ccc(C(F)(F)F)cc1)C(Br)Br
[1]
  pIC50: 5.30

## Nc1c(Br)cc(C(=O)C(Br)Br)cc1Br
[1]
  pIC50: 6.30

## O=C(c1ccc(I)cc1)C(Br)Br
[1]
  pIC50: 5.70

## N#Cc1ccc(C(=O)C(Br)Br)cc1
[1]
  pIC50: 5.82

## CC(=O)n1cnc2c(N)ncnc21
[2]
  pIC50: < 4.30

## NCC(=O)c1ccc(Br)cc1
[1]
  pIC50: 4.00

## Nc1ncnc2c1ncn2C(=O)CCl
[2]
  pIC50: 4.87

## O=C(CO)c1ccc(Br)cc1
[1]
  pIC50: < 4.00

## O=C(CBr)c1ccc(Br)cc1
[8]
  inhibition: < 10%
[9]
  inhibition: < 10%
[10]
  inhibition: < 10%
Rattus norvegicus [11]
  inhibition: < 10%
[12]
  inhibition: 38%
[13]
  inhibition: < 10%
Rattus norvegicus [14]
  inhibition: < 10%
Bos taurus
  inhibition: 29%
Rattus norvegicus [15]
  inhibition: < 10%
Rattus norvegicus [16]
  inhibition: < 10%
[17]
  inhibition: < 10%
Rattus norvegicus [18]
  inhibition: 16%
[19]
  inhibition: < 10%
[20]
  inhibition: < 10%
[21]
  inhibition: 18%
[22]
  inhibition: inactive
[23]
  inhibition: < 10%
[24]
  inhibition: < 10%

## COc1ccc(-n2cnc3cc(C(=O)CBr)ccc32)cc1
[2]
  pIC50: 6.24
[4]
  inhibition: Active

## CC(=O)OCC(=O)c1ccc(Br)cc1
[1]
  pIC50: < 4.00

## O=C(CN1C(=O)c2ccccc2C1=O)c1ccc(Br)cc1
[1]
  pIC50: 4.00

## CC(=O)C1=C(c2cn(C)c3ccccc23)C(=O)NC1=O
[2]
  pIC50: 6.05
[3]
  Activity: Active
[5]
  inhibition: Active

## COc1ccc(-n2cnc3cc(C(C)=O)ccc32)cc1
[2]
  pIC50: < 5.00

## O=C(CCl)c1ccc(Cl)cc1
[8]
  inhibition: < 10%
[9]
  inhibition: < 10%
[10]
  inhibition: 16%
Rattus norvegicus [11]
  inhibition: < 10%
[12]
  inhibition: 19%
[13]
  inhibition: < 10%
Rattus norvegicus [14]
  inhibition: < 10%
Bos taurus
  inhibition: < 10%
Rattus norvegicus [15]
  inhibition: 15%
Rattus norvegicus [16]
  inhibition: < 10%
[17]
  inhibition: < 10%
Rattus norvegicus [18]
  inhibition: < 10%
[19]
  inhibition: < 10%
[20]
  inhibition: < 10%
[21]
  inhibition: < 10%
[22]
  inhibition: inactive
[23]
  inhibition: < 10%
[24]
  inhibition: < 10%

## O=C(CBr)c1ccc(C(F)(F)F)cc1
[1]
  pIC50: 5.30

## CO/N=C(\CBr)c1ccc(Br)cc1
[1]
  pIC50: 4.30

## O=C(c1ccccn1)C(Br)Br
[1]
  pIC50: 5.60

## O=C(CBr)c1ccc(N2CCOCC2)cc1
[1]
  pIC50: 5.22
